# Data from ChEMBL document CHEMBL5236620, “Discovery of 2-Amino-7-sulfonyl-7H-pyrrolo[2,3-d]pyrimidine Derivatives as Potent Reversible FGFR Inhibitors with Gatekeeper Mutation Tolerance: Design, Synthesis, and Biological Evaluation” (J Med Chem, 2022).
# pIC50: −log10 of the molar value. The source made the active and inactive calls. The calls are words filed in the database; no cut-off is given here.
# System: not listed separately
# Experiment: in vitro
# Conditions: mouse, liver microsomes
# Description: Metabolic stability in mouse liver microsomes assessed as half life pretreated for 5 mins followed by NADPH addition and measured for 45 mins by LC/MS analysis
row,Structure (SMILES),half-life at 50 min
1,COc1cccc(S(=O)(=O)n2ccc3cnc(Nc4ccc(N5C[C@@H]6C[C@H]5CN6C)cc4)nc32)c1,13.1 min
2,COc1ccc(OC)c(S(=O)(=O)n2ccc3cnc(Nc4ccc(N5CCN(C)CC5)cc4)nc32)c1,4.9 min
3,COc1cccc(S(=O)(=O)n2ccc3cnc(Nc4ccc(N5CCN(C)CC5)cc4)nc32)c1,4.2 min
4,CN1CCN(c2ccc(Nc3ncc4ccn(S(=O)(=O)c5cc(F)cc(F)c5)c4n3)cc2)CC1,4.4 min

# System: BaF3
# Experiment: Cytotoxicity against mouse BaF3 cells expressing TEL-fused FGFR4 V550L mutant assessed as inhibition of cell growth incubated for 72 hrs by CCK-8 assay
# Assay type: functional, cell-based
# Conditions: BaF3, 72 h
row,Structure (SMILES),pIC50
1,COc1cccc(S(=O)(=O)n2ccc3cnc(Nc4ccc(N5C[C@@H]6C[C@H]5CN6C)cc4)nc32)c1,6.20
2,COc1ccc(OC)c(S(=O)(=O)n2ccc3cnc(Nc4ccc(N5CCN(C)CC5)cc4)nc32)c1,6.39
3,COc1cccc(S(=O)(=O)n2ccc3cnc(Nc4ccc(N5CCN(C)CC5)cc4)nc32)c1,6.27
4,CN1CCN(c2ccc(Nc3ncc4ccn(S(=O)(=O)c5cc(F)cc(F)c5)c4n3)cc2)CC1,6.42

# Molecular target: Fibroblast growth factor receptor 3 (Homo sapiens, UniProt P22607)
# Experiment: not given
# Conditions: not given
# Sequence of Fibroblast growth factor receptor 3 (P22607 whole entry): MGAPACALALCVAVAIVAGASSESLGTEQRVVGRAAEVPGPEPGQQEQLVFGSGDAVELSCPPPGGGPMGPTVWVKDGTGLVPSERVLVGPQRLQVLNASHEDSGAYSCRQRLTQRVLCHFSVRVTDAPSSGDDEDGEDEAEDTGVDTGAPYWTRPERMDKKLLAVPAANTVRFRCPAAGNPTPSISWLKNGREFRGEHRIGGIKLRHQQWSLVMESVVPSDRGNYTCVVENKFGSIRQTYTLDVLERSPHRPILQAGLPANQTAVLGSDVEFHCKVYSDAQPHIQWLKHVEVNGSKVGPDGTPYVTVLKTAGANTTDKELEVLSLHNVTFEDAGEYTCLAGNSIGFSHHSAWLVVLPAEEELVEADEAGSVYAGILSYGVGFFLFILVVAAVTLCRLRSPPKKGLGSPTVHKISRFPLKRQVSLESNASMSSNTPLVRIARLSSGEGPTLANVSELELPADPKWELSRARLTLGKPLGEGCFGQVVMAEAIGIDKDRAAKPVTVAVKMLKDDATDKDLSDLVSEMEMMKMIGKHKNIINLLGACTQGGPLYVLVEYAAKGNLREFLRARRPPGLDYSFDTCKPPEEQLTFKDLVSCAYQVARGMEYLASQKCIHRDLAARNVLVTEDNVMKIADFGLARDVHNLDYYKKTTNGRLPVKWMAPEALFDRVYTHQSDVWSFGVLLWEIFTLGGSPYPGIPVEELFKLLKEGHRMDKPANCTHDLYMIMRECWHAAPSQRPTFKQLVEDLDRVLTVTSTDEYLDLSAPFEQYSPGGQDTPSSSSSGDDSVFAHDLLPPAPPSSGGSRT
row,Structure (SMILES),pIC50
1,COc1cccc(S(=O)(=O)n2ccc3cnc(Nc4ccc(N5C[C@@H](C)N[C@@H](C)C5)cc4)nc32)c1,7.53

# System: not listed separately
# Experiment: in vitro
# Conditions: human
# Description: Metabolic stability in human assessed as intrinsic clearance
row,Structure (SMILES),CLint scaled
1,COc1cccc(S(=O)(=O)n2ccc3cnc(Nc4ccc(N5C[C@@H]6C[C@H]5CN6C)cc4)nc32)c1,6 mL/min/kg
2,COc1ccc(OC)c(S(=O)(=O)n2ccc3cnc(Nc4ccc(N5CCN(C)CC5)cc4)nc32)c1,36.5 mL/min/kg
3,COc1cccc(S(=O)(=O)n2ccc3cnc(Nc4ccc(N5CCN(C)CC5)cc4)nc32)c1,32 mL/min/kg
4,CN1CCN(c2ccc(Nc3ncc4ccn(S(=O)(=O)c5cc(F)cc(F)c5)c4n3)cc2)CC1,49.4 mL/min/kg

# System: not listed separately
# Experiment: in vitro
# Conditions: mouse
# Description: Metabolic stability in mouse assessed as intrinsic clearance
row,Structure (SMILES),CLint scaled
1,COc1cccc(S(=O)(=O)n2ccc3cnc(Nc4ccc(N5C[C@@H]6C[C@H]5CN6C)cc4)nc32)c1,416 mL/min/kg
2,COc1ccc(OC)c(S(=O)(=O)n2ccc3cnc(Nc4ccc(N5CCN(C)CC5)cc4)nc32)c1,1110 mL/min/kg
3,COc1cccc(S(=O)(=O)n2ccc3cnc(Nc4ccc(N5CCN(C)CC5)cc4)nc32)c1,654 mL/min/kg
4,CN1CCN(c2ccc(Nc3ncc4ccn(S(=O)(=O)c5cc(F)cc(F)c5)c4n3)cc2)CC1,1250 mL/min/kg

# System: not listed separately
# Experiment: in vitro
# Conditions: human, liver microsomes
# Description: Metabolic stability in human liver microsomes assessed as intrinsic clearance pretreated for 5 mins followed by NADPH addition and measured for 45 mins by LC/MS analysis
row,Structure (SMILES),microsomal CLint at 50 min
1,COc1cccc(S(=O)(=O)n2ccc3cnc(Nc4ccc(N5C[C@@H]6C[C@H]5CN6C)cc4)nc32)c1,6.4 µL/min/mg
2,COc1ccc(OC)c(S(=O)(=O)n2ccc3cnc(Nc4ccc(N5CCN(C)CC5)cc4)nc32)c1,40.5 µL/min/mg
3,COc1cccc(S(=O)(=O)n2ccc3cnc(Nc4ccc(N5CCN(C)CC5)cc4)nc32)c1,35.5 µL/min/mg
4,CN1CCN(c2ccc(Nc3ncc4ccn(S(=O)(=O)c5cc(F)cc(F)c5)c4n3)cc2)CC1,54.8 µL/min/mg

# Molecular target: Janus Kinase (JAK) (Homo sapiens) (UniProt P52333+P23458+O60674+P29597)
# Experiment: not given
# Conditions: dose 500.0 nM
row,Structure (SMILES),inhibition
1,COc1cccc(S(=O)(=O)n2ccc3cnc(Nc4ccc(N5C[C@@H](C)N[C@@H](C)C5)cc4)nc32)c1,Active

# System: not listed separately
# Experiment: in vitro
# Conditions: human, liver microsomes
# Remark: another data set of the same source
# Description: Metabolic stability in human liver microsomes assessed as half life pretreated for 5 mins followed by NADPH addition and measured for 45 mins by LC/MS analysis
row,Structure (SMILES),half-life at 50 min
1,COc1cccc(S(=O)(=O)n2ccc3cnc(Nc4ccc(N5C[C@@H]6C[C@H]5CN6C)cc4)nc32)c1,224 min
2,COc1ccc(OC)c(S(=O)(=O)n2ccc3cnc(Nc4ccc(N5CCN(C)CC5)cc4)nc32)c1,47.7 min
3,COc1cccc(S(=O)(=O)n2ccc3cnc(Nc4ccc(N5CCN(C)CC5)cc4)nc32)c1,39 min
4,CN1CCN(c2ccc(Nc3ncc4ccn(S(=O)(=O)c5cc(F)cc(F)c5)c4n3)cc2)CC1,35.2 min

# Molecular target: Fibroblast growth factor receptor 4 (Mus musculus) (UniProt Q03142)
# Experiment: not given
# Conditions: BaF3, dose 50-400 nM, time 4.0 hrs
# Sequence of Fibroblast growth factor receptor 4 (Mus musculus) (Q03142 17-799 limits assumed): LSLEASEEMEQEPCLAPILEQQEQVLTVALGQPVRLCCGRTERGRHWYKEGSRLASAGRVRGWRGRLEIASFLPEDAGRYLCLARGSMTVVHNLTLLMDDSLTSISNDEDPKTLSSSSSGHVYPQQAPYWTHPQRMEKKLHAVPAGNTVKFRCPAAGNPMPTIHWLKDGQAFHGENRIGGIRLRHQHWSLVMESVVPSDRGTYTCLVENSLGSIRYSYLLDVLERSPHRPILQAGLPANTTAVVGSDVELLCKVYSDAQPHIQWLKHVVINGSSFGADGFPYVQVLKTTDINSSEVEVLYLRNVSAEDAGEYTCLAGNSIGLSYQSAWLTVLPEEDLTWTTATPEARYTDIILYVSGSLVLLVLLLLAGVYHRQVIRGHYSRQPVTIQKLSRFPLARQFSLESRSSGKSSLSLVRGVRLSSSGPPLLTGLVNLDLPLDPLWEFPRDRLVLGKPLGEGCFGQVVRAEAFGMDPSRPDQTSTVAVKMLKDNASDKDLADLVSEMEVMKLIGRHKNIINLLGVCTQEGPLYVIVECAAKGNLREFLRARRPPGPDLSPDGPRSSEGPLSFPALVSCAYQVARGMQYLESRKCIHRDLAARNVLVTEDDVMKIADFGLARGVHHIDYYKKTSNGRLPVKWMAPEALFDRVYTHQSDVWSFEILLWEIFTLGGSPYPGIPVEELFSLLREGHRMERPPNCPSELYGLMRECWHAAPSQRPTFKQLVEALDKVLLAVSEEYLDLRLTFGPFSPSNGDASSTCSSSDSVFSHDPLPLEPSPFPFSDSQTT
row,Structure (SMILES),inhibition
1,COc1cccc(S(=O)(=O)n2ccc3cnc(Nc4ccc(N5C[C@@H](C)N[C@@H](C)C5)cc4)nc32)c1,Dose-Dependent Effect

# Molecular target: Fibroblast growth factor receptor 4 (Mus musculus) (UniProt Q03142)
# Experiment: not given
# Conditions: BaF3, dose 50-400 nM, time 4.0 hrs
# Remark: another data set of the same source
row,Structure (SMILES),inhibition
1,COc1cccc(S(=O)(=O)n2ccc3cnc(Nc4ccc(N5C[C@@H](C)N[C@@H](C)C5)cc4)nc32)c1,Dose-Dependent Effect

# Molecular target: Fibroblast growth factor receptor 2 (Homo sapiens, UniProt P21802)
# Experiment: not given
# Conditions: not given
# Sequence of Fibroblast growth factor receptor 2 (P21802 whole entry): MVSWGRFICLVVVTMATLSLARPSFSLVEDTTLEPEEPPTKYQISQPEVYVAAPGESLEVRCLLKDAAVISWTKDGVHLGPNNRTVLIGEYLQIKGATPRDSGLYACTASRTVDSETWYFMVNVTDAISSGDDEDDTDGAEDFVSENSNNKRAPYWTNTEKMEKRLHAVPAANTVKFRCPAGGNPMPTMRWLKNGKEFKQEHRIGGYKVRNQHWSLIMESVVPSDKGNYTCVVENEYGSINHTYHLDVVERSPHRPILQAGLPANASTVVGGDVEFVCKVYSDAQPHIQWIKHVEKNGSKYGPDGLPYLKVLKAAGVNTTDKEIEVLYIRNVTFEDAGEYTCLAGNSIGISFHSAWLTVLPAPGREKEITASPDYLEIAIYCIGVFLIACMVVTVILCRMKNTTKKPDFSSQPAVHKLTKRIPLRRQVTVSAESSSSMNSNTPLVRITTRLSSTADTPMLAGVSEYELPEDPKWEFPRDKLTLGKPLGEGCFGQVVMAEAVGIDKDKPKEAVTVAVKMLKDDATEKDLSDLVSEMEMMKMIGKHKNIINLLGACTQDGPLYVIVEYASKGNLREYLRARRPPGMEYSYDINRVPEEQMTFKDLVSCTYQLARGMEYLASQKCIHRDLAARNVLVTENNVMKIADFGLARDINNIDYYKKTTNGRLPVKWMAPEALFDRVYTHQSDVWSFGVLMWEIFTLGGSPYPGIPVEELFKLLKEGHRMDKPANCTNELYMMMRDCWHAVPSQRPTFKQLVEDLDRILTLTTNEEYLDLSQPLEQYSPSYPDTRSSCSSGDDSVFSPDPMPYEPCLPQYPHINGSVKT
row,Structure (SMILES),pIC50
1,COc1cccc(S(=O)(=O)n2ccc3cnc(Nc4ccc(N5C[C@@H](C)N[C@@H](C)C5)cc4)nc32)c1,7.33

# System: Huh-7
# Experiment: cells
# Conditions: Homo sapiens, Huh-7, 72 h
# Description: Cytotoxicity against human Huh-7 cells assessed as inhibition of cell growth incubated for 72 hrs by CellTiter-Glo assay
row,Structure (SMILES),pIC50
1,C=CC(=O)N[C@H]1CCOC[C@H]1Nc1ncc2cc(-c3c(Cl)c(OC)cc(OC)c3Cl)ccc2n1 [FISOGATINIB],7.34
2,COc1cccc(S(=O)(=O)n2ccc3cnc(Nc4ccc(N5C[C@@H]6C[C@H]5CN6C)cc4)nc32)c1,6.78
3,COc1cccc(S(=O)(=O)n2ccc3cnc(Nc4ccc(N(C)CCN(C)C)cc4)nc32)c1,6.09
4,CN1CCN(c2ccc(Nc3ncc4ccn(S(=O)(=O)c5ccccc5Cl)c4n3)cc2)CC1,6.35
5,COc1ccccc1S(=O)(=O)n1ccc2cnc(Nc3ccc(N4CCN(C)CC4)cc3)nc21,6.62
6,COc1cccc(S(=O)(=O)n2ccc3cnc(Nc4ccc(N5CCC(N(C)C)CC5)cc4)nc32)c1,6.51
7,CN1CCN(c2ccc(Nc3ncc4ccn(S(=O)(=O)c5cccc6c5OCO6)c4n3)cc2)CC1,6.27
8,CN1CCN(c2ccc(Nc3ncc4ccn(S(=O)(=O)c5cccnc5)c4n3)cc2)CC1,6.42
9,COc1ccc(OC)c(S(=O)(=O)n2ccc3cnc(Nc4ccc(N5CCN(C)CC5)cc4)nc32)c1,6.61
10,CN1CCN(c2ccc(Nc3ncc4ccn(S(=O)(=O)c5ccccc5OC(F)(F)F)c4n3)cc2)CC1,6.35
11,CN1CCN(c2ccc(Nc3ncc4ccn(S(=O)(=O)c5c(Cl)cccc5Cl)c4n3)cc2)CC1,6.42
12,COc1cccc(S(=O)(=O)n2ccc3cnc(Nc4ccc(N5CCN(C)CC5)cc4)nc32)c1,6.88
13,COc1ccc(Cl)c(S(=O)(=O)n2ccc3cnc(Nc4ccc(N5CCN(C)CC5)cc4)nc32)c1,6.53
14,CN1CCN(c2ccc(Nc3ncc4ccn(S(=O)(=O)c5cc(F)cc(F)c5)c4n3)cc2)CC1,6.72
15,COc1cccc(S(=O)(=O)n2ccc3cnc(Nc4ccc(N5CCC(N(C)C)C5)cc4)nc32)c1 (stereo not given),6.52
16,COc1cccc(S(=O)(=O)n2ccc3cnc(Nc4ccc(C(=O)N5CCN(C)CC5)cc4)nc32)c1,6.35

# System: BaF3
# Experiment: Cytotoxicity against mouse BaF3 cells assessed as inhibition of cell growth incubated for 72 hrs by CCK-8 assay
# Assay type: functional, cell-based
# Conditions: BaF3, 72 h
row,Structure (SMILES),pIC50
1,COc1cccc(S(=O)(=O)n2ccc3cnc(Nc4ccc(N5C[C@@H]6C[C@H]5CN6C)cc4)nc32)c1,< 5.70
2,COc1ccc(OC)c(S(=O)(=O)n2ccc3cnc(Nc4ccc(N5CCN(C)CC5)cc4)nc32)c1,< 5.70
3,COc1cccc(S(=O)(=O)n2ccc3cnc(Nc4ccc(N5CCN(C)CC5)cc4)nc32)c1,< 5.70
4,CN1CCN(c2ccc(Nc3ncc4ccn(S(=O)(=O)c5cc(F)cc(F)c5)c4n3)cc2)CC1,< 5.70

# System: not listed separately
# Experiment: in vitro
# Conditions: mouse, liver microsomes
# Remark: another data set of the same source
# Description: Metabolic stability in mouse liver microsomes assessed as intrinsic clearance pretreated for 5 mins followed by NADPH addition and measured for 45 mins by LC/MS analysis
row,Structure (SMILES),microsomal CLint at 50 min
1,COc1cccc(S(=O)(=O)n2ccc3cnc(Nc4ccc(N5C[C@@H]6C[C@H]5CN6C)cc4)nc32)c1,106 µL/min/mg
2,COc1ccc(OC)c(S(=O)(=O)n2ccc3cnc(Nc4ccc(N5CCN(C)CC5)cc4)nc32)c1,283 µL/min/mg
3,COc1cccc(S(=O)(=O)n2ccc3cnc(Nc4ccc(N5CCN(C)CC5)cc4)nc32)c1,165 µL/min/mg
4,CN1CCN(c2ccc(Nc3ncc4ccn(S(=O)(=O)c5cc(F)cc(F)c5)c4n3)cc2)CC1,319 µL/min/mg

# Molecular target: Fibroblast growth factor receptor 4 (Homo sapiens, UniProt P22455)
# Experiment: not given
# Conditions: not given
# Sequence of Fibroblast growth factor receptor 4 (P22455 whole entry): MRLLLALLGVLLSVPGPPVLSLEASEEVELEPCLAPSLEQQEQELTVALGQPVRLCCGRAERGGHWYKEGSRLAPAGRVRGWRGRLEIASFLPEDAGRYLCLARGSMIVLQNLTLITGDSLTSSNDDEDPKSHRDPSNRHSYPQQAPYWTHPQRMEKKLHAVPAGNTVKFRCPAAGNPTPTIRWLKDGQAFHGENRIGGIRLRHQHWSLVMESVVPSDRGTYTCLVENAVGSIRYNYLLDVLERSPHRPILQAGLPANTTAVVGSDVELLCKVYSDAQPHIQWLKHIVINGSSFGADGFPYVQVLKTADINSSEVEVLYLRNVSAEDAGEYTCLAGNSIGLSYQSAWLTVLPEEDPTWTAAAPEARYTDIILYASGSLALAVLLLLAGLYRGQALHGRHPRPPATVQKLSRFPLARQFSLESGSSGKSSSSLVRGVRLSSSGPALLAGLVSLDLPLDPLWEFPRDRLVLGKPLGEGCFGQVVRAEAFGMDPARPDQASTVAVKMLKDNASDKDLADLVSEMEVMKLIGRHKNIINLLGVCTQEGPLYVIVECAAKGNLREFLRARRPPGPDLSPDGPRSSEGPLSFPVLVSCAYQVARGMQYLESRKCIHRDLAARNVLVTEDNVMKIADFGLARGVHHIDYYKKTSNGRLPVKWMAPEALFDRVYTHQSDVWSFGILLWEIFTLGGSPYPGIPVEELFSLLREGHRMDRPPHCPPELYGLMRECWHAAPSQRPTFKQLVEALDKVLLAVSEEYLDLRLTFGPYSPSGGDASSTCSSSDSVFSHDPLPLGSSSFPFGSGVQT
row,Structure (SMILES),pIC50
1,COc1cccc(S(=O)(=O)n2ccc3cnc(Nc4ccc(N5CCOCC5)cc4)cc32)c1,6.70
2,C=CC(=O)N[C@H]1CCOC[C@H]1Nc1ncc2cc(-c3c(Cl)c(OC)cc(OC)c3Cl)ccc2n1 [FISOGATINIB],8.28
3,COc1cccc(S(=O)(=O)n2ccc3cnc(Nc4ccc(N5C[C@@H](C)N[C@@H](C)C5)cc4)nc32)c1,7.77
4,COc1cccc(S(=O)(=O)n2ccc3cnc(Nc4ccc(N5C[C@@H]6C[C@H]5CN6C)cc4)nc32)c1,7.32
5,CN1CCN(c2ccc(Nc3ncc4ccn(S(=O)(=O)c5cccc(F)c5)c4n3)cc2)CC1,7.22
6,COc1cccc(S(=O)(=O)n2ccc3cnc(Nc4ccc(N(C)CCN(C)C)cc4)nc32)c1,7.77
7,CN1CCN(c2ccc(Nc3ncc4ccn(S(=O)(=O)c5ccccc5Cl)c4n3)cc2)CC1,7.47
8,COc1cccc(S(=O)(=O)c2c[nH]c3cnc(Nc4ccc(N5CCOCC5)cc4)nc23)c1,5.70
9,COc1ccccc1S(=O)(=O)n1ccc2cnc(Nc3ccc(N4CCN(C)CC4)cc3)nc21,7.79
10,COc1cccc(S(=O)(=O)n2ccc3cnc(Nc4ccc(N5CCC(N(C)C)CC5)cc4)nc32)c1,7.86
11,COc1cccc(S(=O)(=O)n2ccc3cnc(Nc4ccc(N5CCOCC5)cc4)nc32)c1,6.94
12,CN1CCN(c2ccc(Nc3ncc4ccn(S(=O)(=O)c5cccc6c5OCO6)c4n3)cc2)CC1,7.53
13,COc1cccc(S(=O)(=O)c2cnc3cnc(Nc4ccc(N5CCOCC5)cc4)cn23)c1,5.32
14,CN1CCN(c2ccc(Nc3ncc4ccn(S(=O)(=O)c5cccnc5)c4n3)cc2)CC1,7.48
15,COc1cccc(S(C)(=O)=Nc2cc(Nc3ccc(N4CCOCC4)cc3)ncc2C#N)c1 (stereo not given),6.46
16,COc1ccc(OC)c(S(=O)(=O)n2ccc3cnc(Nc4ccc(N5CCN(C)CC5)cc4)nc32)c1,8.06

row,Structure (SMILES),pIC50
1,COc1cccc(S(=O)(=O)Nc2cc(Nc3ccc(N4CCOCC4)cc3)ncc2C#N)c1,< 5.00
2,CN1CCN(c2ccc(Nc3ncc4ccn(S(=O)(=O)c5cccc(OC(F)(F)F)c5)c4n3)cc2)CC1,6.15
3,COc1ccc(S(=O)(=O)n2ccc3cnc(Nc4ccc(N5CCN(C)CC5)cc4)nc32)cc1,6.05
4,COc1cccc(S(=O)(=O)n2ccc3cnc(Nc4ccc(CN5CCN(C)CC5)cc4)nc32)c1,6.88
5,CN1CCN(c2ccc(Nc3ncc4ccn(S(=O)(=O)c5ccn(C)n5)c4n3)cc2)CC1,6.90
6,CN1CCN(c2ccc(Nc3ncc4ccn(S(=O)(=O)c5ccccc5OC(F)(F)F)c4n3)cc2)CC1,7.43
7,CN1CCN(c2ccc(Nc3ncc4ccn(S(=O)(=O)c5ccccc5)c4n3)cc2)CC1,7.13
8,CN1CCN(c2ccc(Nc3ncc4ccn(S(=O)(=O)c5c(Cl)cccc5Cl)c4n3)cc2)CC1,7.26
9,COc1cccc(S(=O)(=O)n2ccc3cnc(Nc4ccc(N5CCN(C)CC5)cc4)nc32)c1,7.98
10,COc1ccc(Cl)c(S(=O)(=O)n2ccc3cnc(Nc4ccc(N5CCN(C)CC5)cc4)nc32)c1,7.54
11,COc1cc(OC)cc(S(C)(=O)=Nc2cc(Nc3ccc(N4CCOCC4)cc3)ncc2C#N)c1 (stereo not given),5.66
12,CN1CCN(c2ccc(Nc3ncc4ccn(S(=O)(=O)c5cc(F)cc(F)c5)c4n3)cc2)CC1,7.90
13,CN1CCN(c2ccc(Nc3ncc4ccn(S(=O)(=O)C5CCCCC5)c4n3)cc2)CC1,6.21
14,COc1cccc(S(=O)(=O)n2ccc3cnc(Nc4ccc(N5CCC(N(C)C)C5)cc4)nc32)c1 (stereo not given),7.38
15,COc1cccc(S(=O)(=O)n2ccc3cnc(Nc4ccc(C(=O)N5CCN(C)CC5)cc4)nc32)c1,6.95
16,COc1cccc(S(=O)(=O)n2ccc3cnc(Nc4ccc(N5CCN(C)CC5)cc4)nc32)c1OC,5.87

# Molecular target: Fibroblast growth factor receptor 4 (Mus musculus) (UniProt Q03142)
# Experiment: not given
# Conditions: BaF3, dose 50-400 nM, time 4.0 hrs
# Remark: another data set of the same source
row,Structure (SMILES),inhibition
1,COc1cccc(S(=O)(=O)n2ccc3cnc(Nc4ccc(N5C[C@@H](C)N[C@@H](C)C5)cc4)nc32)c1,Dose-Dependent Effect

# System: BaF3
# Experiment: Cytotoxicity against mouse BaF3 cells expressing wild type TEL-fused FGFR4 assessed as inhibition of cell growth incubated for 72 hrs by CCK-8 assay
# Assay type: functional, cell-based
# Conditions: BaF3, 72 h
row,Structure (SMILES),pIC50
1,COc1cccc(S(=O)(=O)n2ccc3cnc(Nc4ccc(N5C[C@@H]6C[C@H]5CN6C)cc4)nc32)c1,6.90
2,COc1ccc(OC)c(S(=O)(=O)n2ccc3cnc(Nc4ccc(N5CCN(C)CC5)cc4)nc32)c1,7.23
3,COc1cccc(S(=O)(=O)n2ccc3cnc(Nc4ccc(N5CCN(C)CC5)cc4)nc32)c1,7.14
4,CN1CCN(c2ccc(Nc3ncc4ccn(S(=O)(=O)c5cc(F)cc(F)c5)c4n3)cc2)CC1,7.19
